The values that follow come from patent publication US9956262B2, “Use of a bacterium isolated from the genus Pseudoalteromonas, cyclolipopeptides and uses thereof” (priority 2013, dated 2018).

For one assay, the system named is strain hCg-6. Briefly: Antibiotic sensitivity of the strain hCg-6. More on the design: key to Sensitive to: +: Positive; −: negative; f: slight reaction. It is filed as cell-based, Pseudoalteromonas hCg-6.
Assay [1] relates to collection of strains of Vibrio splendidus isolated from oysters. Briefly: MIC in liquid medium on a collection of Vibrio splendidus strains isolated from oysters. It counts as cell-based. The note with it: collection of V. splendidus strains. On the procedure:
The cyclolipopeptide no. 2 was tested on a collection of strains of Vibrio splendidus isolated from oysters. It has minimum inhibitory concentrations from 1.56 to 50 μM. The MICs were defined in a liquid medium by using the procedure of Wiegand, Hilpert, and Hancock 2008.

Another assay relates to S. enterica CIP 8297. Kind of assay: MIC in liquid medium. It is filed as cell-based. The note with it: 24 h. On the procedure: (§1) The minimum inhibitory concentration (MIC) of the compounds nos. 1, 2, 3, 5, 7 and 8 was evaluated in a liquid medium following the procedure of Wiegand, Hilpert, and Hancock 2008. The spectrum of the target bacteria was extended to certain human pathogens such as the bacteria Salmonella enterica, a clinical strain of Escherichia coli having a beta-3-lactamase activity with an extended spectrum and Pseudomonas aeruginosa. After 24 h of incubation at an optimum temperature, the MICs are evaluated visually.

Another assay has as its system A. caviae CIP 7616. Kind of assay: MIC in liquid medium. It counts as cell-based. The settings on record: 24 h. On the procedure:
as §1

The subject of the next assay is V. splendidus LGP 32. Briefly: MIC in liquid medium. It counts as cell-based. The settings on record: 24 h. On the procedure:
as §1

A further assay deals with E. coli SBS363. Kind of assay: MIC in liquid medium. The settings on record: 24 h. It counts as cell-based. Here is the method: as §1
Assay [2] relates to E. coli β résistante P7 (clinical strain). Kind of assay: MIC in liquid medium. It counts as cell-based. The settings on record: 24 h. On the procedure: as §1
The test system of assay [3] is Pseudomonas aeruginosa ATCC 27853. Briefly: MIC in liquid medium. It is filed as cell-based. The settings on record: 24 h. On the procedure: as §1
The subject of the next assay is Y. ruckeri ATCC 29473. Briefly: MIC in liquid medium. The settings on record: 24 h. It counts as cell-based. Here is the method:
as §1

The next assay concerns E. coli ML35. Kind of assay: MIC in liquid medium. It is filed as cell-based. The note with it: 24 h. On the procedure:
as §1

The test system of another assay is V. harveyi ORM4. Kind of assay: MIC in liquid medium. The settings on record: 24 h. It is filed as cell-based. On the procedure: as §1
In a further assay the test system is A. hydrophila CIP 7614. Kind of assay: MIC in liquid medium. It counts as cell-based. The note with it: 24 h. On the procedure: as §1

Values after ≈ are worked out from the molar mass of the structure shown. Like-named read-outs stand apart in the source and are kept apart here.

For `CC1(C)S[C@@H]2[C@H](NC(=O)[C@H](N)c3ccc(O)cc3)C(=O)N2[C@H]1C(=O)O` [amoxicillin], in the assay with strain hCg-6, the “resistance/sensitivity of the strain hCg-6” value (shortened to “resistance/sensitivity”) is “sensitive”.

As for `CO/N=C(\C(=O)N[C@@H]1C(=O)N2C(C(=O)[O-])=C(C[n+]3cccc4c3CCCC4)CS[C@H]12)c1csc(N)n1` [cefquinom], the “resistance/sensitivity” value in the assay with strain hCg-6 is reported as “sensitive”.

As to `CC1=C(C(=O)O)N2C(=O)[C@@H](NC(=O)[C@H](N)c3ccccc3)[C@H]2SC1` [cephalexin], the “resistance/sensitivity” value with strain hCg-6 is listed as “resistant”.

In the case of `CC=C1NC(=O)C(NC(=O)CC(O)CCCCCCC)C(O)CNC(=O)C(C(O)CN)NC(=O)C(C(O)CN)NC(=O)C(CCCNC(=N)N)NC(=O)C(CC(C)CC)NC(=O)C(CCN)NC1=O` (stereo not shown) [cyclolipopeptide 2], in assay [1], the minimum inhibitory concentrations was in the range of 1.56 to 50 µM. Moreover, the MIC against S. enterica CIP 8297 was 1.4 µM (≈ 1.38 µg/mL); in the assay with A. caviae CIP 7616, 17.6 µM (≈ 17.3 µg/mL); in the assay with V. splendidus LGP 32, 4.4 µM (≈ 4.33 µg/mL); with E. coli SBS363, 0.1 µM (≈ 0.0985 µg/mL); in assay [2], 8.8 µM (≈ 8.67 µg/mL); in assay [3], 35.2 µM (≈ 34.7 µg/mL). Moreover, the MIC amounted to 1.1 µM (≈ 1.08 µg/mL) against Y. ruckeri ATCC 29473 and 35 µM (≈ 34.5 µg/mL) against E. coli ML35.

`CC=C1NC(=O)C(NC(=O)CCCCCCC)C(O)CNC(=O)C(C(O)CN)NC(=O)C(C(O)CN)NC(=O)C(CCCNC(=N)N)NC(=O)C(CC(C)CC)NC(=O)C(CCN)NC1=O` (stereo not shown) [cyclolipopeptide 3]: the MIC with S. enterica CIP 8297 was 12.5 µM (≈ 11.8 µg/mL); against V. splendidus LGP 32, 50 µM (≈ 47.1 µg/mL); with V. harveyi ORM4, 50 µM (≈ 47.1 µg/mL); against E. coli SBS363, 50 µM (≈ 47.1 µg/mL); in the assay with Y. ruckeri ATCC 29473 it was 50 µM (≈ 47.1 µg/mL); in the assay on E. coli ML35, 100 µM (≈ 94.1 µg/mL).

`CC=C1NC(=O)C(NC(=O)CCCCCCCC)C(O)CNC(=O)C(C(O)CN)NC(=O)C(C(O)CN)NC(=O)C(CCCNC(=N)N)NC(=O)C(CC(C)CC)NC(=O)C(CCN)NC1=O` (stereo not shown) [cyclolipopeptide 5]: the MIC in the assay on S. enterica CIP 8297 came out at 6.3 µM (≈ 6.02 µg/mL); in the assay on V. splendidus LGP 32 it was 6.3 µM (≈ 6.02 µg/mL); in the assay on V. harveyi ORM4, 6.3 µM (≈ 6.02 µg/mL); in the assay on E. coli SBS363, 25 µM (≈ 23.9 µg/mL); in the assay on A. hydrophila CIP 7614, 25 µM (≈ 23.9 µg/mL); with Y. ruckeri ATCC 29473, 6.3 µM (≈ 6.02 µg/mL). In the assay on E. coli ML35, this molecule showed an MIC of 50 µM (≈ 47.8 µg/mL).

In the case of `CCN1CCN(c2cc3c(cc2F)c(=O)c(C(=O)O)cn3C2CC2)CC1` [enrofloxacin], in the assay on strain hCg-6, the “resistance/sensitivity” value is on record as “sensitive”.

`CCn1cc(C(=O)O)c(=O)c2cc3c(cc21)OCO3` [oxolinic acid]: in the assay on strain hCg-6, the “resistance/sensitivity” value is on record as “sensitive”.

Take Polymyxin B [reference compound]: the MIC in the assay with S. enterica CIP 8297 is 0.8 µM; against A. caviae CIP 7616 it was 3.1 µM; against V. splendidus LGP 32, 1.6 µM; in the assay on V. harveyi ORM4 it was 25 µM; against E. coli SBS363 it was 0.2 µM; in [2], 1.6 µM. In addition, the MIC in the assay with A. hydrophila CIP 7614 was determined as 0.8 µM; in assay [3], 1.6 µM; with Y. ruckeri ATCC 29473, 0.4 µM; in the assay with E. coli ML35 it was 3.1 µM.

With gentamycin, the “resistance/sensitivity” value in the assay with strain hCg-6 is reported as “sensitive”.

As for polymyxin, the “resistance/sensitivity” value in the assay with strain hCg-6 (50 μg) is recorded as “resistant”. In addition, the “Sensitive to” value in the assay on strain hCg-6 (300 ED) is given as “−”.

What is called MIC is the smallest concentration in the dilution series that meets the test's criterion for growth inhibition.
